Results: patent US20080306166A1, “Compositions and Methods For Treatment of Disorders of Protein Aggregation” (priority 2004, published 2008)
“Also recorded” adds a separate entry of the source.

Legend:
[1] = Pilot in vivo studies with myo-cyclohexanehexyl; details: data not shown
From the text: The TgCRND8 mice and non-transgenic littermates were assigned to sex- and age-matched cohorts that were then used to test the effectiveness of the cyclohexanehexyl stereoisomers as a therapeutic (with treatment delayed until five months of age and continued for one month until six months of age). […] The endpoints were cognitive function, brain Aβ levels, and neuropathology. […] Over the course of these experiments, observers were unaware of genotype or treatment group.

[2] = 6-18 grams/day/adult or 86-257 mg/Kg/day; cited from earlier work
[3] = target: T1, Aβ (Homo sapiens, UniProt P05067); details: cited from earlier work
T1 construct: Inositol stereoisomers stabilize an oligomeric aggregate of Alzheimer amyloid beta peptide

[4] = tested on: TgCRND8 mice; assay: Morris Water Maze spatial reference memory test in TgCRND8 mice; assay type: in vivo, mouse; details: six month old TgCRND8 mice, 28 days treatment from 5 months
Experimental: Mice. […] This initial dosage was chosen based upon the dosage of myo-cyclohexanehexyl (6-18 grams/day/adult or 86-257 mg/Kg/day) that is typically administered to human patients for various psychiatric disorders. […] A cohort of animals (n=10 mice per treatment arm) entered the study at five months of age, and outcomes were then analyzed after one month of treatment. The body weight, coat characteristics and in cage behaviour were monitored. Mannitol was used as a negative control for potential alterations in caloric intake. All experiments were performed according to the Canadian Council on Animal Care guidelines. Behavioural tests: Morris Water Maze testing was performed as previously described. After non-spatial pre-training, mice underwent place discrimination training for 5 days with 4-trials per day, followed by a cued visible platform to rule out general motivational, learning deficits and motor problems, and a probe trial to evaluate memory. […] Open field test for motor activity was preformed as described previously. Duration of walking, pausing and grooming were analyzed as indices of spontaneous locomotor activity. Sensorimotor function was examined with an Economex™ accelerating rotarod (Columbus Instruments, Columbus, Ohio), as described elsewhere. The rod was set to accelerate at a rate of 0.2 r.p.m./s, from an initial, constant speed of 5 r.p.m. Latency to fall was recorded in four daily trials, conducted at 30 min intervals. All mice were trained for seven days before testing. The test day performance score for each animal was obtained by summing its latency to fall over the four trials. Cerebral amyloid burden. Brains were removed and one hemisphere was fixed in 4% paraformaldehyde and embedded in paraffin wax in the mid sagittal plane. To generate sets of systematic uniform random sections, 5 μm serial sections were collected across the entire hemisphere. Sets of sections at 50 μm intervals were used for analyses (10-14 sections/set). Plaques were identified after antigen retrieval with formic acid, and incubation with primary anti-AD antibody (Dako M-0872), followed by secondary antibody (Dako StreptABCcomplex/horseradish kit). End products were visualized with DAB and were counter-stained with luxol fast blue. Amyloid plaque burden was assessed with Leco IA-3001 image analysis software interfaced with Leica microscope and Hitachi KP-M1U CCD video camera. Openlab imaging software (Improvision, Lexington, Mass.) was then used to convert micrographs to binary images for plaque number and plaque area determinations. Vascular amyloid burden was defined as amyloid originating from or surrounding blood vessels and was analysed similarly. Plasma and Cerebral Aβ Content. Hemi-brain samples were homogenized in a buffered sucrose solution, followed by either 0.4% diethylamine/100 mM NaCl for soluble Aβ levels or cold formic acid for the isolation of total Aβ. After neutralization, the samples were diluted and analyzed for Aβ40 and Aβ42 using commercially available kits (BIOSOURCE International). Each hemisphere was analyzed intriplicate and the mean values ±SEM reported. Western blot analyses were performed on all fractions using urea gels for Aβ species analyses. Aβ was detected using 6E10 (BIOSOURCE International) and Enhanced Chemiluminenscence (Amersham). Gliosis Quantitation. Five randomly selected, evenly spaced, sagittal sections were collected from paraformaldehyde-fixed and frozen hemispheres of treated and control mice. […]

[5] = tested on: TgCRND8 mice; assay: Cerebral amyloid plaque burden (anti-Aβ immunostaining, image analysis); assay type: in vivo, mouse
Experimental: Mice. […] This initial dosage was chosen based upon the dosage of myo-cyclohexanehexyl (6-18 grams/day/adult or 86-257 mg/Kg/day) that is typically administered to human patients for various psychiatric disorders. […] A cohort of animals (n=10 mice per treatment arm) entered the study at five months of age, and outcomes were then analyzed after one month of treatment. The body weight, coat characteristics and in cage behaviour were monitored. Mannitol was used as a negative control for potential alterations in caloric intake. All experiments were performed according to the Canadian Council on Animal Care guidelines. Behavioural tests: Morris Water Maze testing was performed as previously described. After non-spatial pre-training, mice underwent place discrimination training for 5 days with 4-trials per day, followed by a cued visible platform to rule out general motivational, learning deficits and motor problems, and a probe trial to evaluate memory. […] Open field test for motor activity was preformed as described previously. Duration of walking, pausing and grooming were analyzed as indices of spontaneous locomotor activity. Sensorimotor function was examined with an Economex™ accelerating rotarod (Columbus Instruments, Columbus, Ohio), as described elsewhere. The rod was set to accelerate at a rate of 0.2 r.p.m./s, from an initial, constant speed of 5 r.p.m. Latency to fall was recorded in four daily trials, conducted at 30 min intervals. All mice were trained for seven days before testing. The test day performance score for each animal was obtained by summing its latency to fall over the four trials. Cerebral amyloid burden. Brains were removed and one hemisphere was fixed in 4% paraformaldehyde and embedded in paraffin wax in the mid sagittal plane. To generate sets of systematic uniform random sections, 5 μm serial sections were collected across the entire hemisphere. Sets of sections at 50 μm intervals were used for analyses (10-14 sections/set). Plaques were identified after antigen retrieval with formic acid, and incubation with primary anti-AD antibody (Dako M-0872), followed by secondary antibody (Dako StreptABCcomplex/horseradish kit). End products were visualized with DAB and were counter-stained with luxol fast blue. Amyloid plaque burden was assessed with Leco IA-3001 image analysis software interfaced with Leica microscope and Hitachi KP-M1U CCD video camera. Openlab imaging software (Improvision, Lexington, Mass.) was then used to convert micrographs to binary images for plaque number and plaque area determinations. Vascular amyloid burden was defined as amyloid originating from or surrounding blood vessels and was analysed similarly. Plasma and Cerebral Aβ Content. Hemi-brain samples were homogenized in a buffered sucrose solution, followed by either 0.4% diethylamine/100 mM NaCl for soluble Aβ levels or cold formic acid for the isolation of total Aβ. After neutralization, the samples were diluted and analyzed for Aβ40 and Aβ42 using commercially available kits (BIOSOURCE International). Each hemisphere was analyzed intriplicate and the mean values ±SEM reported. Western blot analyses were performed on all fractions using urea gels for Aβ species analyses. Aβ was detected using 6E10 (BIOSOURCE International) and Enhanced Chemiluminenscence (Amersham). Gliosis Quantitation. Five randomly selected, evenly spaced, sagittal sections were collected from paraformaldehyde-fixed and frozen hemispheres of treated and control mice. Sections were immunolabelled for astrocytes with anti-rat GFAP IgG2a, (Dako; diluted 1:50) and for microglia with anti-rat CD68 IgG2b (Dako; 1:50).

[6] = target: T2, Aβ42 (Homo sapiens, UniProt P05067); assay: Plasma Aβ42 levels; assay type: in vivo, mouse; details: TgCRND8 mice, 28 days of therapy at five months of age
T2 construct: analyzed for Aβ40 and Aβ42 using commercially available kits; from tissue; host or cells: TgCRND8 transgenic mice: hemi-brain (A3) and plasma (A5)
Experimental: Mice. […] This initial dosage was chosen based upon the dosage of myo-cyclohexanehexyl (6-18 grams/day/adult or 86-257 mg/Kg/day) that is typically administered to human patients for various psychiatric disorders. […] A cohort of animals (n=10 mice per treatment arm) entered the study at five months of age, and outcomes were then analyzed after one month of treatment. The body weight, coat characteristics and in cage behaviour were monitored. Mannitol was used as a negative control for potential alterations in caloric intake. All experiments were performed according to the Canadian Council on Animal Care guidelines. Behavioural tests: Morris Water Maze testing was performed as previously described. […] Duration of walking, pausing and grooming were analyzed as indices of spontaneous locomotor activity. […] Latency to fall was recorded in four daily trials, conducted at 30 min intervals. […] Amyloid plaque burden was assessed with Leco IA-3001 image analysis software interfaced with Leica microscope and Hitachi KP-M1U CCD video camera. […] Vascular amyloid burden was defined as amyloid originating from or surrounding blood vessels and was analysed similarly. […] After neutralization, the samples were diluted and analyzed for Aβ40 and Aβ42 using commercially available kits (BIOSOURCE International). Each hemisphere was analyzed intriplicate and the mean values ±SEM reported. […] Gliosis Quantitation. […]

[7] = TgCRND8 mice, oral, 28 days from 5 months of age, 6 months of age, listed as Epi-cyclohexanehexol

T1 sequence (P05067 672-713 limits assumed): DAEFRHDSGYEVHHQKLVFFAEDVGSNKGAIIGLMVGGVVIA
T2 sequence (P05067 672-713): as the sequence (P05067 672-713 limits assumed) above

For `O[C@H]1[C@H](O)[C@@H](O)[C@H](O)[C@@H](O)[C@H]1O` [myo-cyclohexanehexyl, 1,2,3,5/4,6-(myo-) cyclohexanehexyl], the “benefit in pilot in vivo studies” value [1] is given as “no significant benefit”, the “toxicity in humans or animals” value [2] is given as “no toxicity” and the “effectiveness in prior in vitro studies” value [3] is given as “only weakly effective”.

For `OC1C(O)C(O)C(O)C(O)C1O` (stereo not drawn) [epi-cyclohexanehexyl, 1,2,3,4,5/6-(epi-) cyclohexanehexyl, reference compound], the “spatial learning performance compared to non-Tg littermates” value [4] was “significantly poorer than the performance of their non-Tg littermates; also recorded: remained impaired with respect to non-Tg littermates”, the “spatial learning performance compared to untreated TgCRND8 littermates” value [4] was “not significantly different from that of untreated TgCRND8 littermates” and the “impact on brain Aβ40 or Aβ42 levels, percent area of the brain covered with plaques, or plaque number” value ([5]; TgCRND8 mice with pre-existing disease, 28 days) was “no significant impact”. For the same molecule, the “Mean Plaque Size” value [5, 7] was 346 ± 6 μm^2, the “Total Plaque Area” value [5, 7] was 459706 ± 49966 μm^2 and the “Total Plaque Count” value [5, 7] was 1342 ± 114. For the same molecule, the “Plasma Aβ42 levels” value [6] was 1079 ± 79 pg/mL.
